Assays:
[1] = test system: Erwinia amylovora PMV6076; experiment: In vitro growth inhibition (MIC); format: cell-based; conditions: TSB, 25°C, 48 h, OD 600 nm (Bioscreen C), three replicates, experiment repeated twice; MIC = lowest concentration with no growth, given as range
Protocol: (§1) Peptide conjugates were tested for in vitro growth inhibition of the plant-pathogenic bacteria E. amylovora PMV6076, Xanthomonas arboricola pv. pruni CFBP5563, X. fragariae Xf349-9A, X. axonopodis pv. vesicatoria 2133-2, P. syringae pv. actinidiae Psa3700.1.1, and P. syringae pv. syringae EPS94 (Fig. 1, Table SA). The corresponding monomers (flg15, BP13, Pep13, PIP1, BP16, BP100, BP143, BP387, BP475, and KSL-W) were included for comparison.
(§2) The following plant-pathogenic bacterial strains were used: Erwinia amylovora PMV6076 (Institut National de la Recherche Agronomique, Angers, France), Pseudomonas syringae pv. syringae EPS94 (Institut de Tecnologia Agroalimentària, University of Girona, Spain), Xanthomonas axonopodis pv. vesicatoria 2133-2, X. axonopodis pv. vesicatoria Xav206 (Xav) (D. F. Ritchie, Department of Plant Pathology, North Carolina State University), Pseudomonas syringae pv. actinidiae Psa3700.1.1, Xanthomonas fragariae Xf349-9A (Instituto Valenciano de Investigaciones Agrarias, Valencia, Spain), and Xanthomonas arboricola pv. pruni CFBP5563 (Collection Française de Bactéries Associées aux Plantes, Angers, France). All bacteria except for X. fragariae were stored in Luria Bertani (LB) broth supplemented with glycerol (20%) and maintained at −80°C. For X. fragariae, medium B ([80]) was used instead of LB. E. amylovora, X. arboricola pv. pruni, P. syringae pv. syringae, and P. syringae pv. actinidiae were scraped from the agar medium after growing for 24 h at 25°C, and X. axonopodis pv. vesicatoria and X. fragariae, after growing for 48 h at 25°C. The cell material was suspended in sterile water to obtain a suspension of 10^8 CFU mL^−1.
(§3) Lyophilized peptides were solubilized in sterile Milli-Q water to a final concentration of 1 mM and filter-sterilized through a 0.22-μm pore filter. […] Then, 20 μL of each dilution were mixed in a microtiter plate well with 20 μL of the corresponding suspension of the bacterial indicator, 160 μL of Trypticase soy broth (TSB) (bioMérieux, France) to a total volume of 200 μL. Three replicates for each combination of strain, compound, and concentration were used. Microbial growth was determined by optical density measurement at 600 nm (Bioscreen C; Labsystem, Helsinki, Finland). Microplates were incubated at 25°C with 20 s of shaking before hourly absorbance measurement for 48 h. The experiment was repeated twice. The MIC was taken as the lowest compound concentration with no growth at the end of the experiment.

[2] = test system: Pseudomonas syringae pv. syringae EPS94; experiment: In vitro growth inhibition (MIC); format: cell-based; conditions: TSB, 25°C, 48 h, OD 600 nm (Bioscreen C), three replicates, experiment repeated twice; MIC given as range
Protocol: as §1, §2, §3

[3] = test system: Xanthomonas arboricola pv. pruni CFBP5563; experiment: In vitro growth inhibition (MIC); format: cell-based; conditions: TSB, 25°C, 48 h, OD 600 nm (Bioscreen C), three replicates, experiment repeated twice; MIC given as range
Protocol: as §1, §2, §3

[4] = test system: Xanthomonas fragariae Xf349-9A; experiment: In vitro growth inhibition (MIC); format: cell-based; conditions: TSB, 25°C, 48 h, OD 600 nm (Bioscreen C), three replicates, experiment repeated twice; MIC given as range
Protocol: as §1, §2, §3

[5] = test system: Xanthomonas axonopodis pv. vesicatoria 2133-2; conditions: TSB, 25°C, 48 h, OD 600 nm (Bioscreen C), three replicates, experiment repeated twice; MIC given as range
Text: The corresponding monomers (flg15, BP13, Pep13, PIP1, BP16, BP100, BP143, BP387, BP475, and KSL-W) were included for comparison.
as §2, §3

horse erythrocytes = conditions: TRIS buffer pH 7.2, 1 h, 37°C, absorbance 540 nm, relative to melittin 100 μM, ± confidence interval (α = 0.05)
Protocol: The toxicity of peptide conjugates to eukaryotic cells was determined as the ability to lyse erythrocytes (Table SB).
The hemolytic activity of the compounds was evaluated by determining hemoglobin release from erythrocyte suspensions of horse blood (5% vol/vol) (Oxoid) as previously described ([45]). Blood was centrifuged at 6000g for 5 min, washed three times with TRIS buffer (10 mM TRIS, 150 mM NaCl, pH 7.2) and diluted 10 times. Compounds were solubilized in TRIS buffer at 750, 500, 300, and 100 μM and mixed with horse erythrocytes (1:1 vol/vol). The mixture was incubated with continuous shaking for 1 h at 37°C. Then, the tubes were centrifuged at 3500g for 10 min, 80-μL aliquots of the supernatant were transferred to 100-well microplates (Bioscreen) and diluted with 80 μL water, and the absorbance measured at 540 nm (Bioscreen). […] The percentage of hemolysis (H) was calculated using the equation H = 100 × ([Op − Ob]/[Om − Ob]), where Op is the density for a given compound concentration, Ob is that for the buffer, and Om is that for the melittin positive control.

tobacco leaves = experiment: Effect of peptide infiltration on tobacco leaves (phytotoxicity); format: in vivo; conditions: 100 μL infiltrated into mesophyll, lesion diameter 48 h after infiltration, at least three leaves; ± confidence interval (α = 0.05)
Protocol: Peptide conjugates were also assayed for their toxicity in tobacco leaves (Fig. 3, Table SC). After 48 h of infiltration, melittin caused a necrotic area of 0.70 and 2.17 cm in diameter at 50 and 250 μM, respectively. The monomers were not phytotoxic at those concentrations; all of them led to lesions of ≤1.2 cm at 250 μM. All peptide conjugates were also less phytotoxic than melittin, causing necrotic lesions between 0.26 and 1.67 cm in diameter at 250 μM. In particular, 15 of the 30 conjugates led to a necrotic area of <1 cm at this concentration. In general, sequences incorporating BP13 were among the most phytotoxic.
Peptide conjugates were evaluated for their effect on infiltration on tobacco leaves as described previously ([41]). Peptide solutions of 50, 150, and 250 μM were infiltrated (100 μL) into the mesophylls of fully expanded tobacco leaves. Infiltrations were carried out in a single leaf, and for each peptide and dose, at least three leaves randomly distributed in different plants were inoculated. Control infiltrations with water (negative control) or melittin (positive control) at the same molar concentration were performed. The appearance of symptoms on the leaves was followed for 48 h after infiltration and measured as lesion diameter.

[6] = HPLC retention time as indicator of relative hydrophobicity; format: physicochemical; conditions: chromatographic, Kromasil 100 C18 (4.6 mm × 40 mm, 3 μm), linear gradient 2 to 100% B over 12 min, 1 mL/min; A 0.1% aqueous TFA, B 0.1% TFA in CH3CN; used as indicator of relative hydrophobicity
Protocol: The parameters related to the structure of the peptide conjugates (sequence, charge, hydrophobic ratio [HR], and HPLC retention time), as well as their physicochemical properties (grand average hydropathicity [GRAVY] and hydrophobic moment [<μH>]) obtained from the online programs ProtParam (Expasy server) and HeliQuest are included in Table 1.
Peptides were analyzed under standard analytical HPLC conditions. Method A: peptides were analyzed with a Dionex liquid chromatography instrument composed of a UV/Vis Dionex UVD170U detector, a P680 Dionex pump, an ASI-100 Dionex automatic injector, and Chromeleon 6.60 software. Detection was performed at a wavelength of 220 nm. Solvent A was 0.1% aqueous trifluoroacetic acid (TFA), and solvent B was 0.1% TFA in CH3CN. Analyses were carried out with a Kromasil 100 C18 (4.6 mm × 40 mm, 3 μm) column with a linear gradient of 2 to 100% B over 7 min at a flow rate of 1 mL/min. Method B: peptides were analyzed with a 1260 Infinity II liquid chromatography instrument (Agilent Technologies) composed of a diode array detector HS, a quaternary pump VL, a 1260 vial sampler, and OpenLab CDS ChemStation software. Analyses were carried out with a Kromasil 100 C18 (4.6 mm × 40 mm, 3 μm) column with a linear gradient of 2 to 100% B over 12 min at a flow rate of 1 mL/min.

[7] = test system: Pseudomonas syringae pv. actinidiae Psa3700.1.1; experiment: In vitro growth inhibition (MIC); format: cell-based; conditions: TSB, 25°C, 48 h, OD 600 nm (Bioscreen C), three replicates, experiment repeated twice; MIC given as range
Protocol: as §1, §2, §3

Substance | MIC, Ea [1] [µM] | MIC, Pss [2] [µM] | MIC, Xap [3] [µM] | MIC, Xf [4] [µM] | MIC, Xav [5] [µM] | Percent hemolysis at 50 μM (horse erythrocytes) [%] | Percent hemolysis at 150 μM (horse erythrocytes) [%] | Percent hemolysis at 250 μM (horse erythrocytes) [%] | Percent hemolysis at 375 μM (horse erythrocytes) [%] | Size of the lesions in infiltrated tobacco leaves at 50 μM (tobacco leaves) [cm] | Size of the lesions in infiltrated tobacco leaves at 150 μM (tobacco leaves) [cm] | Size of the lesions in infiltrated tobacco leaves at 250 μM (tobacco leaves) [cm] | tR (min), HPLC retention time (method B) [6] [min] | MIC, Psa [7] [µM]
RINSAKDDAAGLQIA-KKLFKKILKYL-NH2 [flg15-BP100, peptide conjugate, flg15 at N-terminus, BP100 at C-terminus] | 6.2 to 12.5 | 12.5 to 25 | 0.8 to 1.6 | 6.2 to 12.5 | 0.8 to 1.6 | 48 ± 4.1 | 52 ± 4.3 | 63 ± 2.4 | 66 ± 9.2 | 0.46 ± 0.10 | 0.80 ± 0.22 | 1.02 ± 0.24 | 6.29 | 
FKLFKKILKVL-KKLfKKILKYL-NH2 [BP13-BP143, peptide conjugate, BP13 at N-terminus, BP143 at C-terminus] | > 50 | > 50 | 6.2 to 12.5 | 12.5 to 25 | 1.6 to 3.1 | 100 ± 0.6 | 100 ± 3.7 | 100 ± 3.2 | 100 ± 10.6 | 0.53 ± 0.18 | 0.88 ± 0.15 | 1.07 ± 0.37 |  | > 50
FKLFKKILKVL-KKLFKKILKKL-NH2 [BP13-BP16, peptide conjugate, BP13 at N-terminus, BP16 at C-terminus] | > 50 | > 50 | 6.2 to 12.5 | 6.2 to 12.5 | 12.5 to 25 | 86 ± 13.2 | 86 ± 1.6 | 87 ± 1.2 | 93 ± 2.3 | 0.52 ± 0.08 | 1.08 ± 0.21 | 1.40 ± 0.71 |  | > 50
KKLFKKILKKL-FKLFKKILKVL-NH2 [BP16-BP13, peptide conjugate, BP16 at N-terminus, BP13 at C-terminus] | > 50 | 12.5 to 25 | 6.2 to 12.5 | 12.5 to 25 | 1.6 to 3.1 | 100 ± 4.0 | 100 ± 2.3 | 100 ± 8.5 | 100 ± 2.1 | 0.68 ± 0.16 | 1.15 ± 0.28 | 1.52 ± 0.32 |  | 25 to 50
FKLFKKILKVL-NH2 [BP13, reference compound] | 25 to 50 | 12.5 to 25 | 6.2 to 12.5 | 25 to 50 | 50 to 100 | 5 ± 0.2 | 13 ± 2 | 27 ± 3 | 42 ± 3 | 0.20 ± 0.24 | 0.48 ± 0.15 | 0.96 ± 0.19 |  | 3.1 to 6.2

Reference: article PMC9238401, “Peptide Conjugates Derived from flg15, Pep13, and PIP1 That Are Active against Plant-Pathogenic Bacteria and Trigger Plant Defense Responses” (Applied and Environmental Microbiology, 2022)
